Test results as given in patent US8759400B2, “Histone deacetylase inhibitors for enhancing activity of antifungal agents” (MethylGene Inc., priority 2005, dated 2014).
Values after ≈ are worked out from the molar mass of the structure shown. Values joined by “and” are separate entries in the source; they are usually repeats but may differ in a detail not shown here. Equal values may be shown once. Marks after values point to notes of the source that are not given here.

What was measured:
HDAC [1] = assay: HDAC inhibitory activity in fungal protoplasts (Fluor-de-Lys); format: cell-based, Candida glabrata; settings: C. glabrata protoplasts
Experimental: (§1) Protoplasts of C. albicans and C. glabrata are prepared by the […] method of Franzusoff et al.

C. tropicalis [2] = assay: Clinical isolates, CLSI M27-A2 broth microdilution and checkerboard; format: cell-based
C. albicans [3] = assay: Immunocompromised mouse model of systemic candidiasis; format: in vivo; settings: compound 4 at 2-10 mg/kg i.p. daily with ketoconazole 20 mg/kg i.p. daily, 7 days; immunocompromised mice; FIG. 4
Experimental: The standard method for the mouse candidiasis studies is as follows. Female CD-1 mice are immunocompromised by injecting 240 mg/kg cyclophosphamide on day -3 then 80 mg/kg cyclophosphamide on days 1 and 5. C. albicans is grown in Sabouraud agar, cells are resuspended in 0.9% saline and counted in a hemacytometer. […] Mice are treated with ketoconazole +/− test compound daily for seven days, starting one day after the infection. They are monitored daily for weight loss and death. Mice are sacrificed on day 8 and the kidneys are removed and homogenized and fungal load (CFU) per pair of kidneys determined.

C. glabrata (ATCC 90030) = assay: MIC80 and checkerboard synergy with antifungal agents; format: cell-based, Candida glabrata; settings: for Cpd 4 Conc for 4-fold synergy: C. glabrata (90030)
HMEC = assay: Mammalian cytotoxicity, MTT reduction
C. albicans [4] = assay: Clinical isolates, CLSI M27-A2 broth microdilution and checkerboard; format: cell-based; settings: Cpd 4 with voriconazole
Histoplasma = assay: microbe, parasite or virus in culture; format: cell-based
C. glabrata = assay: Post-antifungal effect (PAFE); format: cell-based
Experimental: The post-antifungal effect (PAFE) is the time needed to achieve one log10 of cell growth after drug removal. One-two colonies are resuspended in 5 ml YPD. […] Cells are incubated at 30° C. overnight. In the morning, the optical density at 600 nm is read. Cells at A600 the closest but not surpassing 0.3 (early log-phase cells) are picked for further treatments as follows: […] Counts of CFU/ml are performed at time zero, before and after diluting the cells and at predetermined time points in order to determine the PAFE and the cidal potential of each drug combination (FIGS. 5-10).

A. fumigatus = assay: Clinical isolates, CLSI M38-A broth microdilution and checkerboard; format: cell-based
C. parapsilosis (22019) = assay: MIC and checkerboard synergy with azoles; format: cell-based, Candida parapsilosis
Experimental: (§2) For susceptibility studies, overnight cultures of both Candida species are diluted 1:100 in YEPD medium, grown for 4 h at 30° C., counted in a hemocytometer, then diluted to a concentration of 5×10^3 cells/ml. […] Synergy, determined by the checkerboard method, is defined as a decrease in MIC of antifungal agent that is more than additive of the MIC of the histone deacetylase inhibitor and the antifungal agent alone.

Aspergillus fumigatus = assay: Clinical isolates of other fungal species, checkerboard; format: cell-based
HDAC [5] = assay: HDAC inhibitory activity in fungal protoplasts (Fluor-de-Lys); format: cell-based, Candida albicans; settings: C. albicans protoplasts
Experimental: as §1

Aspergillus terreus = assay: Clinical isolates of other fungal species, checkerboard; format: cell-based
A. niger = assay: Clinical isolates, CLSI M38-A broth microdilution and checkerboard; format: cell-based
Coccidioides immitis = assay: microbe, parasite or virus in culture; format: cell-based
Aspergillus spp. = assay: Clinical isolates, checkerboard, summary over 16 isolates; format: cell-based
A. fumigatus ATCC 1022 = assay: MIC80 and checkerboard synergy, broth microdilution (NCCLS M38-A); format: cell-based, Aspergillus fumigatus
Pseudallescheria boydii = assay: Clinical isolates of other fungal species, checkerboard; format: cell-based
C. dubliniensis = assay: Clinical isolates, CLSI M27-A2 broth microdilution and checkerboard; format: cell-based
C. krusei (14243) = assay: MIC and checkerboard synergy with azoles; format: cell-based, Candida krusei
Experimental: as §2

C. parapsilosis = assay: Fungicidal activity (CFU counts); format: cell-based; settings: voriconazole with Compound 4, data not shown
C. krusei = assay: Clinical isolates, CLSI M27-A2 broth microdilution and checkerboard; format: cell-based; settings: for minimum Compound 4 concentration at which Compound 4 alone inhibited growth (number in brackets): C. krusei clinical isolates
C. tropicalis [6] = assay: Fungicidal activity (CFU counts); format: cell-based; settings: voriconazole with Compound 4, data not shown
[7] = Aspergillus spp. clinical isolates
[8] = Cpd 4 with fluconazole, C. dubliniensis clinical isolates
[9] = Cpd 4 with voriconazole, C. dubliniensis clinical isolates

O=C(Cc1ccc(CCCCc2ccccc2)cc1)NO [Cpd 4]
HDAC inhibition IC50 (HDAC [1]): >20 (20%) μg/ml | HDAC inhibition, per cent in parentheses beside IC50 >20 (HDAC [1]; concentration not given): >20 (20%) | Conc. Cpd 4 for 4-fold decrease (C. tropicalis [2]; 4-fold reduction of FLU MIC): 0.5 µg/mL | VOR/Cpd 4 FIC interpretation (C. tropicalis [2]; Cpd 4 with voriconazole): (S) (S = synergy) | effect on the activity of ketoconazole (fungal load, CFU per pair of kidneys) (C. albicans [3]): enhancing (i.e., synergistic) effect | Conc. Cpd 4 for 4-fold decrease (C. glabrata (ATCC 90030); 4-fold decrease of fenpropimorph MIC, C. glabrata): 0.78 µg/mL | MIC (C. glabrata (ATCC 90030); Nakaseomyces glabratus, ATCC90030, compound alone, C. glabrata (ATCC 90030), read-out: MIC80): 6.25 µg/mL | concentration at which Compound 4 synergizes with fenpropimorph (C. glabrata (ATCC 90030); against C. glabrata): 2 µg/mL | Cpd 4 Conc for 4-fold synergy (C. glabrata (ATCC 90030); with itraconazole): 0.2 µg/mL | Cpd 4 Conc for 4-fold synergy (C. glabrata (ATCC 90030); with ketoconazole): 0.25 µg/mL | Cpd 4 Conc for 4-fold synergy (C. glabrata (ATCC 90030); with voriconazole): 0.39 µg/mL | MTT HMEC (HMEC): 13 µM | VOR/Cpd 4 FIC interpretation (C. albicans [4]): (S) (S = synergy) | Synergy with Cpd 4 (strains showing synergy/total strains tested) Itraconazole (Histoplasma): 0/3 | Synergy with Cpd 4 (strains showing synergy/total strains tested) Voriconazole (Histoplasma): 0/3 | MIC (Histoplasma; read-out: Cpd 4 MIC): 1 to 2 µg/mL (≈ 3.53 to 7.06 µM) | PAFE (C. glabrata; Compound 4 combined with voriconazole, FIGS. 5 and 6C): ~1 h | PAFE (C. glabrata; itraconazole combined with Compound 4, FIG. 7): 0.5 h | ITR/Cpd 4 FIC interpretation (A. fumigatus; Cpd 4 with itraconazole): (S) (S = synergy) | VOR/Cpd 4 FIC interpretation (A. fumigatus; Cpd 4 with voriconazole): (S) (S = synergy) | minimum Compound 4 concentration at which Compound 4 alone inhibited growth (number in brackets) (A. fumigatus; ITR checkerboard): 4.0 µg/mL | MIC (C. parapsilosis (22019); Lodderomyces parapsilosis, read-out: Cpd 4 MIC): 0.39 to 0.78 µg/mL | Cpd 4 Conc for 4-fold synergy (C. parapsilosis (22019); with ketoconazole): 0.2 µg/mL | Cpd 4 Conc for 4-fold synergy (C. parapsilosis (22019); with voriconazole): 0.049 µg/mL | MIC (Aspergillus fumigatus; Aspergillus fumigatus clinical isolates, read-out: Cpd 4 MIC): 4 to 8 µg/mL | Synergy with Cpd 4 (strains showing synergy/total strains tested) Itraconazole (Aspergillus fumigatus; Aspergillus fumigatus, *Synergy occurs at ½ MIC of Cpd 4): 2/3* | Synergy with Cpd 4 (strains showing synergy/total strains tested) Voriconazole (Aspergillus fumigatus; Aspergillus fumigatus, †2-fold synergy obtained): 2/3^† | HDAC inhibition IC50 (HDAC [5]): >20 µg/mL | Synergy with Cpd 4 (strains showing synergy/total strains tested) Itraconazole (Aspergillus terreus; Aspergillus terreus): 3/3 | Synergy with Cpd 4 (strains showing synergy/total strains tested) Voriconazole (Aspergillus terreus; Aspergillus terreus): 3/3 | MIC (Aspergillus terreus; Aspergillus terreus clinical isolates, read-out: Cpd 4 MIC): > 8 µg/mL | ITR/Cpd 4 FIC (A. niger; Cpd 4 with itraconazole): 0.5 | VOR/Cpd 4 FIC (A. niger; Cpd 4 with voriconazole): 0.5 | minimum Compound 4 concentration at which Compound 4 alone inhibited growth (number in brackets) (A. niger; ITR checkerboard): 4.0 µg/mL | minimum Compound 4 concentration at which Compound 4 alone inhibited growth (number in brackets) (A. niger; VOR checkerboard): 2.0 µg/mL | Synergy with Cpd 4 (strains showing synergy/total strains tested) Voriconazole (Coccidioides immitis): 0/3** | Synergy with Cpd 4 (strains showing synergy/total strains tested) Itraconazole (Coccidioides immitis; Coccidioides immitis): 2/3 | MIC (Coccidioides immitis; Coccidioides immitis, read-out: Cpd 4 MIC): 0.25 µg/mL (≈ 0.882 µM) | Compound 4 concentrations required for 4-fold reductions in azole MIC (Aspergillus spp.; [7]): 1 to 8 µg/mL | in vitro antagonism of Compound 4-azole combination (Aspergillus spp.; [7]): none of the isolates tested | number of isolates with additivity (Aspergillus spp.; Compound 4 with VOR and ITR, of 16 Aspergillus spp. isolates): 4 | number of isolates with synergy (Aspergillus spp.; Compound 4 with both VOR and ITR, of 16 Aspergillus spp. isolates): 11 | MIC (A. fumigatus ATCC 1022; Aspergillus fumigatus, ATCC1022, A. fumigatus (1022), read-out: Cpd 4 MIC): 2 to 5 µg/mL | Cpd 4 Conc for 4-fold synergy (A. fumigatus ATCC 1022; with itraconazole, A. fumigatus (1022)): 5 µg/mL | Cpd 4 Conc for 4-fold synergy (A. fumigatus ATCC 1022; with ketoconazole, A. fumigatus (1022)): 2.5 µg/mL | conc. for 4-fold synergy (A. fumigatus ATCC 1022; with ketoconazole, A. fumigatus ATCC 1022, 48 hours): 0.5 µg/mL | Cpd 4 Conc for 4-fold synergy (A. fumigatus ATCC 1022; with voriconazole, A. fumigatus (1022)): 5 µg/mL | Synergy with Cpd 4 (strains showing synergy/total strains tested) Itraconazole (Pseudallescheria boydii; Pseudallescheria boydii): 0/3 | Synergy with Cpd 4 (strains showing synergy/total strains tested) Voriconazole (Pseudallescheria boydii; Pseudallescheria boydii): 0/3 | MIC (Pseudallescheria boydii; Scedosporium boydii, Pseudallescheria boydii clinical isolates, read-out: Cpd 4 MIC): 2 µg/mL | FLU/Cpd 4 FIC (C. dubliniensis; [8]): 2.0 | FLU/Cpd 4 FIC interpretation (C. dubliniensis; [8]): (I) (I = indifference) | VOR/Cpd 4 FIC (C. dubliniensis; [9]): 2.0 | VOR/Cpd 4 FIC interpretation (C. dubliniensis; [9]): (I) (I = indifference) | minimum Compound 4 concentration at which Compound 4 alone inhibited growth (number in brackets) (C. dubliniensis; FLU checkerboard, C. dubliniensis clinical isolates): 0.03 µg/mL | minimum Compound 4 concentration at which Compound 4 alone inhibited growth (number in brackets) (C. dubliniensis; VOR checkerboard, C. dubliniensis clinical isolates): 0.12 µg/mL | activity of Compound 4 alone (C. dubliniensis; all 4 clinical isolates of C. dubliniensis): potent activity alone | MIC (C. krusei (14243); Pichia kudriavzevii, read-out: Cpd 4 MIC): 3.1 to 6.3 µg/mL | Cpd 4 Conc for 4-fold synergy (C. krusei (14243); with itraconazole): 0.39 µg/mL | Cpd 4 Conc for 4-fold synergy (C. krusei (14243); with ketoconazole): 0.39 µg/mL | Cpd 4 Conc for 4-fold synergy (C. krusei (14243); with voriconazole): 0.39 µg/mL | increase in voriconazole fungicidal activity (C. parapsilosis): 1.1-1.2 fold | FLU/Cpd 4 FIC interpretation (C. krusei; Cpd 4 with fluconazole, C. krusei clinical isolates and QC 6258): (S) (S = synergy) | VOR/Cpd 4 FIC (C. krusei; Cpd 4 with voriconazole, C. krusei clinical isolates and QC 6258): 0.6 and 0.5 and 0.3 | minimum Compound 4 concentration at which Compound 4 alone inhibited growth (number in brackets) (C. krusei; FLU checkerboard): 0.5 µg/mL | minimum Compound 4 concentration at which Compound 4 alone inhibited growth (number in brackets) (C. krusei; VOR checkerboard): 0.25 µg/mL and 0.5 µg/mL | increase in voriconazole fungicidal activity (C. tropicalis [6]): 1.1-1.2 fold
